Values quoted from earlier work, collected in patent US9044449B2, “X-ray contrast media compositions and methods of using the same to treat, reduce or delay the onset of CNS inflammation and inflammation associated conditions” (3E THERAPEUTICS CORPORATION, priority 2011, dated 2015).
Residues, ends and D or L forms follow the SMILES beside them.

Tests used:
TNF-alpha = conditions: in vitro
mast cell degranulation = conditions: in vitro; immunological and non-immunological stimuli
[1] = test system: allergen induced nasal obstruction; conditions: used as a nasal spray, in vivo
[2] = molecular target: angiotensin converting enzyme (ACE) (Homo sapiens, UniProt P12821); conditions: in vitro; FIG. 2 reproduced from Lasser et al. 1990
angiotensin converting enzyme (ACE), sequence (P12821 30-1306, species assumed): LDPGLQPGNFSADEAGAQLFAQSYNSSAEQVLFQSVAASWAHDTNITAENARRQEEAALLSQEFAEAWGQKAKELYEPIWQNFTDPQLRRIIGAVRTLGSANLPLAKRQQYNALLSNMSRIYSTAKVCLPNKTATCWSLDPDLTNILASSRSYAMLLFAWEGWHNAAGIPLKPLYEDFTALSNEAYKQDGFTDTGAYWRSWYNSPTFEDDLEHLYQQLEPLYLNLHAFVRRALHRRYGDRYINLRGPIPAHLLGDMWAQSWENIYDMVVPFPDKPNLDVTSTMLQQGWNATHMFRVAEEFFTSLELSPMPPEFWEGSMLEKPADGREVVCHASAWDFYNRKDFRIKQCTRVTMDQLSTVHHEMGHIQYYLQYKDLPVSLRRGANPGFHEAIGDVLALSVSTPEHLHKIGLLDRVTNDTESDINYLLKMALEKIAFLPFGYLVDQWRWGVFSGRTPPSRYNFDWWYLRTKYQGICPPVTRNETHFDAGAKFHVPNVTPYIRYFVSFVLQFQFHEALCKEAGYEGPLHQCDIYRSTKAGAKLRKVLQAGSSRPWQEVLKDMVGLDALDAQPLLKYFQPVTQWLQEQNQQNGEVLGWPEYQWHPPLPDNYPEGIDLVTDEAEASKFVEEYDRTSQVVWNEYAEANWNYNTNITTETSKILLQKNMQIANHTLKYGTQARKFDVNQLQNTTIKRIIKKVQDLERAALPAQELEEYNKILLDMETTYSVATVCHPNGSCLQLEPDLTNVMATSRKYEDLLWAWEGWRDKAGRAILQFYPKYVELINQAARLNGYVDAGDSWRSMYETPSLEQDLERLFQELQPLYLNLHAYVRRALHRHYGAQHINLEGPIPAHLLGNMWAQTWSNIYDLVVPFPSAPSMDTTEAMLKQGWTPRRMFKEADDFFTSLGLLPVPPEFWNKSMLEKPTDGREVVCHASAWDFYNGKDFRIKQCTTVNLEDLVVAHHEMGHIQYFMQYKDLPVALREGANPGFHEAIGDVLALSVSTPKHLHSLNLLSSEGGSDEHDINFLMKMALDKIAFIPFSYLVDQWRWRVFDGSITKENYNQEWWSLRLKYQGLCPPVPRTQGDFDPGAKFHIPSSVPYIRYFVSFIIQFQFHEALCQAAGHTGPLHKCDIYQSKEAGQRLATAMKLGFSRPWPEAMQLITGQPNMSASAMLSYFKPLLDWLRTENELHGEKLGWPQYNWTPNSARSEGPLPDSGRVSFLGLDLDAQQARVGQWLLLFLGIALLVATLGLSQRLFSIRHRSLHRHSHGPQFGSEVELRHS

## O=C(O)c1cc(=O)c2c(OCC(O)COc3cccc4oc(C(=O)O)cc(=O)c34)cccc2o1 [Sodium cromoglycate]
TNF-alpha
  inhibition of TNF-alpha: inhibited TNF-alpha in vitro

## CC(=O)N[C@@H](CC(=O)[O-])C(=O)N[C@@H](CCC(=O)[O-])C(=O)O.[Mg+2] [magnesium salt of n-acetyl aspartyl glutamic acid] (Ac-Asp-Glu-OH)
Mast cell degranulation
  inhibition of mast cell degranulation: inhibit mast cell degranulation
[1]
  effect on allergen induced nasal obstruction: reduce allergen induced nasal obstruction

## CCCc1c2oc(C(=O)[O-])cc(=O)c2cc2c(=O)cc(C(=O)[O-])n(CC)c12.[Na+].[Na+] [nedocrimal sodium]
TNF-alpha
  inhibition of TNF-alpha: inhibited TNF-alpha in vitro

## C[C@H](O)C(=O)Nc1c(I)c(C(=O)NC(CO)CO)c(I)c(C(=O)NC(CO)CO)c1I [purified iopamidol, iopamidol]
[2]
  inhibition of ACE compared with commercial iopamidol (contains chelator): diminishes the inhibition ACE significantly
